Measurements: publication PMC6504579 (Journal of immunology (Baltimore, Md. : 1950), 2019)
Where two headings read alike, the source gives them in different places.

Format: in vitro ADME, human
Conditions: for ATK9 epitope produced (share of degradation products): representative donor; for degradation rate of substrate in CD3/CD28-stimulated vs non-stimulated extracts: paired CD4 T cell cytosolic extracts, 37 °C, pH 7.4, LC-MS/MS; for time of peak production of N-extended TW10 precursors: sampled at 2, 5 and 8 h
[1] = CD3/CD28-stimulated extract, 120 min
[2] = CD3/CD28-stimulated extract, 180 min
[3] = non-stimulated extract, 120 min
[4] = non-stimulated extract, 180 min

Row | SMILES | antitopes produced (share of degradation products) [1] [%] | ATK9 epitope produced (share of degradation products) [1] [%] | antitopes produced (share of degradation products) [2] [%] | ATK9 epitope produced (share of degradation products) [2] [%] | antitopes produced (share of degradation products) [3] [%] | ATK9 epitope produced (share of degradation products) [3] [%] | antitopes produced (share of degradation products) [4] [%] | ATK9 epitope produced (share of degradation products) [4] [%] | degradation rate of substrate in CD3/CD28-stimulated vs non-stimulated extracts | time of peak production of N-extended TW10 precursors (activated extracts) [h] | time of peak production of N-extended TW10 precursors (extracts from resting CD4 T cells) [h] | detection of optimal TW10 at 2, 5 and 8 hours (paired resting and activated extracts)
1 | CC[C@H](C)[C@H](NC(=O)[C@H](C)NC(=O)[C@@H]1CCCN1C(=O)[C@H](CO)NC(=O)CNC(=O)[C@H](CCCCN)NC(=O)[C@@H](N)Cc1c[nH]c2ccccc12)C(=O)N[C@@H](Cc1ccccc1)C(=O)N[C@@H](CCC(N)=O)C(=O)N[C@@H](CO)C(=O)N[C@@H](CO)C(=O)N[C@@H](CCSC)C(=O)N[C@H](C(=O)N[C@@H](CCCCN)C(=O)N[C@H](C(=O)N[C@@H](CC(C)C)C(=O)O)[C@@H](C)CC)[C@@H](C)O [5-ATK9–2] | 66.43 | 0.49 | 79.38 | 0.54 | 48.1 | 1.05 | 57.7 | 1.06 | degraded faster |  |  | 
2 | CC[C@H](C)[C@H](NC(=O)[C@H](CCC(N)=O)NC(=O)[C@H](CCC(=O)O)NC(=O)[C@H](CCC(N)=O)NC(=O)[C@H](CC(C)C)NC(=O)[C@@H](NC(=O)[C@H](CO)NC(=O)[C@@H](NC(=O)[C@@H](NC(=O)CNC(=O)[C@H](C)NC(=O)[C@@H](NC(=O)[C@@H](N)CC(=O)O)[C@@H](C)CC)[C@@H](C)O)[C@@H](C)O)[C@@H](C)O)C(=O)NCC(=O)N[C@@H](Cc1c[nH]c2ccccc12)C(=O)N[C@@H](CCSC)C(=O)N[C@H](C(=O)N[C@@H](CC(N)=O)C(=O)O)[C@@H](C)O [5-TW10–3] |  |  |  |  |  |  |  |  | faster degradation rates | 2 | 5 | only in activated extracts
